Assay results reported in US20180353461A1, “USE OF CANNABINOIDS AS CERAMIDE-GENERATING ANTICANCER AGENTS IN TUMORS OF THE HEMATOPOIETIC AND LYMPHOID TISSUES” (priority 2014, published 2018).

Columns and labels:
Type in all cases: cell-based, human
T-cells (CD3+) = assay: Cell viability of T-cells (MTT)
[1] = system: hematopoietic stem cells (CD34+); assay: Cell viability of CD34+ hematopoietic stem cells from healthy donors (MTT); details: any tested dose
lymphocytes = assay: Viability of normal residual lymphocytes in bone marrow samples of MM patients (flow cytometry); details: for viability of lymphocytes: all doses except the highest dose tested; for dose at which lymphocytes were affected (highest dose tested): bone marrow of MM patients
Excerpt: (§1) Human multiple myeloma cell lines MM1.S, MM1.R, RPMI-8226 (RPMI) and U266 were purchased from American Type Culture Collection [(ATCC), LGC Standards, Manassas, USA]. Human primary cells were obtained from MM patients' bone marrow (BM) and healthy donors' peripheral blood (PB). PB samples were collected from buffy coats and leukapheresis products, previously mobilized with granulocyte colony stimulating factor (G-CSF). Hematopoietic progenitor cells (CD34+) were isolated from leukaphesesis samples, and B (CD19+) and T (CD3+) lymphocytes from buffy coats by positive immunomagnetic separation in the AutoMACS pro separator (Miltenyi Biotec, Bergisch Gladbach, Germany). For this purpose CD34-, CD19- and CD3-MACS microbead Human Kit (Miltenyi Biotec, Bergisch Gladbach, Germany). The purity of all isolated cells was higher than 95% in all cases. BM samples were obtained from five MM patients. In all cases, BM plasma cell infiltration was greater than 30%. The different cell subpopuplations from MM patients BM were not separated, but they were identified by flow cytometry using a suitable combination of antibodies: anti-CD64-FITC, anti-CD34-PE, anti-CD56-APC, anti-CD38-APC-H7, and anti-CD45-Pacific Blue (BD Biosciences, San Jose, Calif.).
Further, cell viability of bone marrow cell populations from patients was assessed by flow cytometry using 7-amino-actinomycin D [(7-AAD), BD Biosciences] together with a combination of monoclonal antibodies against myeloma-associated antigens (anti-CD56-APC, anti-CD45-Pacific Blue, and anti-CD38-APC-H7 [BD Biosciences]) and antibodies to discriminate the granulomonocytic (anti-CD64-FITC) and lymphocytic (anti-CD45-Pacific Blue) populations. Cells were incubated for 15 minutes at room temperature in the dark with suitable antibodies and 7-AAD, and after washing a total of 100 000 cells were acquired on FACSCanto II flow cytometer (BD Biosciences). Fluorescent intensity was quantified and analyzed using Infinicyt™ Software (Cytognos, Salamanca, Spain). Additionally, cell viability of MM cell lines and the peripheral blood CD34+, CD3+ and CD19+ cell populations from healthy donors was also analyzed by flow cytometry using 7-AAD, with the same protocol above described.
Once determined the antiproliferative effect of cannabinoids on tumor cells, both primary and cell lines, our aim was to test whether or not these drugs could also affect the viability of the counterpart normal cells, both normal residual populations from bone marrow samples obtained from MM patients as well as hematopoietic stem cells (CD34+) from healthy donors. […] Granulocytes and lymphocytes, were also unaffected by both cannabinoids, except for the lymphocytes at the highest doses tested, 50 uM for WIN-55 and 1 mM for JWH-133 (FIG. 2a,b).

blasts from AML patients = assay: Cell viability of blasts from AML patients (MTT)
[2] = system: CD34+ hematopoietic stem cells; assay: Cell viability of CD34+ hematopoietic stem cells, Example 2 (MTT)
Excerpt: Human primary cells were obtained from LMA patients' bone marrow (BM) and healthy donors' peripheral blood (PB). Hematopoietic progenitor cells (CD34+) were isolated from leukaphesesis samples, and B (CD19+) and T (CD3+) lymphocytes from buffy coats by positive immunomagnetic separation in the AutoMACS pro separator (Miltenyi Biotec, Bergisch Gladbach, Germany). For this purpose CD34-, CD19- and CD3-MACS microbead Human Kit (Miltenyi Biotec, Bergisch Gladbach, Germany).
Cells lines, CD34+ cells and blast were cultured in 96-well plates (5×10e5 cells per well) with the addition of the indicated concentrations of WIN 55,212-2 or JWH-133 in DMSO or with the solvent alone in triplicate. Also we add myoricin together the cannabinoid WIN-55 to see if this effect reversed. Cell viability was determined by the WST-1 [2-(4-lodophenyl)-3-(4-nitrophenyl)-5-(2,4-disulfophenyl)-2H-tetrazolium] assay as per the manufacturer's instructions (Dojindo Molecular Technologies). Optical densities were measured at 450 nm using a plate reader Multiskan™ Go Microplate (Thermo Fisher Scientific, Waltham, Mass., USA).
Stem cells were treated with WIN-55 or JWH-133 and cell viability was analyzed using MTT assay.

Granulocytes = assay: Viability of normal residual granulocytes in bone marrow samples of MM patients (flow cytometry); details: all doses tested
Excerpt: as §1, with “BM samples were obtained from five MM patients. In all cases, BM plasma cell infiltration was greater than 30%. The different cell subpopuplations from MM patients BM were not separated, but they were identified by flow cytometry using a suitable combination of antibodies: anti-CD64-FITC, anti-CD34-PE, anti-CD56-APC, anti-CD38-APC-H7, and anti-CD45-Pacific Blue (BD Biosciences, San Jose, Calif.).” left out
(§2) Further, cell viability of bone marrow cell populations from patients was assessed by flow cytometry using 7-amino-actinomycin D [(7-AAD), BD Biosciences] together with a combination of monoclonal antibodies against myeloma-associated antigens (anti-CD56-APC, anti-CD45-Pacific Blue, and anti-CD38-APC-H7 [BD Biosciences]) and antibodies to discriminate the granulomonocytic (anti-CD64-FITC) and lymphocytic (anti-CD45-Pacific Blue) populations. […] Fluorescent intensity was quantified and analyzed using Infinicyt™ Software (Cytognos, Salamanca, Spain). […]

[3] = system: myeloma plasma cells (MPCs); assay: Ex vivo viability of myeloma plasma cells from bone marrow of MM patients (flow cytometry, 7-AAD)
Excerpt: as §1, with “BM samples were obtained from five MM patients. In all cases, BM plasma cell infiltration was greater than 30%. The different cell subpopuplations from MM patients BM were not separated, but they were identified by flow cytometry using a suitable combination of antibodies: anti-CD64-FITC, anti-CD34-PE, anti-CD56-APC, anti-CD38-APC-H7, and anti-CD45-Pacific Blue (BD Biosciences, San Jose, Calif.).” left out
as §2

SMILES	viability of T-cells (T-cells (CD3+))	cell viability of hematopoietic stem cells (CD34+) [1]	viability of lymphocytes (lymphocytes)	dose at which lymphocytes were affected (highest dose tested) (lymphocytes) [µM]	cell viability of blasts from AML patients (blasts from AML patients)	cell viability of CD34+ hematopoietic stem cells [2]	viability of granulocytes (Granulocytes)	decrease in cell viability of MPCs as compared to control (vehicle-treated) cells ([3]; 50 uM, bone marrow of MM patients)	viability of MPCs ([3]; less pronounced as compared to WIN-55)
CS(=O)(=O)O.Cc1c(C(=O)c2cccc3ccccc23)c2cccc3c2n1[C@H](CN1CCOCC1)CO3 [WIN-55, (R)-(+)-[2,3-dihydro-5-methyl-3-(4-morpholinylmethyl)-pyrrolo-[1,2,3]-1,4-benzoxazin-6-yl]-1-naphthalenylmethanone mesylate]	remained unaffected	remained unaffected	unaffected	50	reduce the cell viability	remains unaffected	unaffected	up to 85%	
CCCC(C)(C)c1ccc2c(c1)OC(C)(C)[C@@H]1CC=C(C)C[C@@H]21 [JWH-133, (6aR,10aR)-3-(1,1-Dimethylbutyl)-6a,7,10,10a-tetrahydro-6,6,9-trimethyl-6H-dibenzo [b,d] pyran]	remained unaffected	remained unaffected	unaffected	1000	reduce the cell viability	remains unaffected	unaffected		decreased viability
